{"source": "patent US7615651B2", "about": "“Diaryl, dipyridinyl and aryl-pyridinyl derivatives and uses thereof” (Pfizer Inc., priority 2006, dated 2009)", "key": {"opioid receptor delta": {"target": "T1, opioid receptor delta (Homo sapiens, UniProt P41143)", "T1 construct": "expressed in transfected cells", "T1 sequence (P41143 whole entry)": "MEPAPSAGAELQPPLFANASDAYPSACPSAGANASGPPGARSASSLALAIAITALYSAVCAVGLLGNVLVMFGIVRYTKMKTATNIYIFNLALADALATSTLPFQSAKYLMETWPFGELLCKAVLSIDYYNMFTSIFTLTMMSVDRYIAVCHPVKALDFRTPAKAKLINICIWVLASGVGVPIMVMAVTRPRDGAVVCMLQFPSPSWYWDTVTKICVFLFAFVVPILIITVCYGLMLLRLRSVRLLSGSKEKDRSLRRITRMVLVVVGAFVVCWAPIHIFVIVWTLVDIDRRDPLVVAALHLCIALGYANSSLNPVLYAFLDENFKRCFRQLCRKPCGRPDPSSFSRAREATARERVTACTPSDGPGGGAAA", "assay": "GTPγ[35S] binding assay, antagonism of BW-373U86", "type": "biochemical", "outline": "(§1)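 Membranes with […] GTPγ[35S] in Tris pH 7.4 buffer with MgCl2, NaCl, 30 μM GDP; antagonist (10^−10–10^−5 M) preincubated 10 min at 30 °C, then challenged with BW-373U86 1 nM (delta), dynorphin-A 10 nM (kappa) or endorphin 1 μM (mu) for 1 h at 30 °C. Scintillation read-out; Ki derived.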"}, "opioid receptor kappa": {"target": "T2, opioid receptor kappa (Homo sapiens, UniProt P41145)", "T2 construct": "expressed in transfected cells", "T2 sequence (P41145 whole entry)": "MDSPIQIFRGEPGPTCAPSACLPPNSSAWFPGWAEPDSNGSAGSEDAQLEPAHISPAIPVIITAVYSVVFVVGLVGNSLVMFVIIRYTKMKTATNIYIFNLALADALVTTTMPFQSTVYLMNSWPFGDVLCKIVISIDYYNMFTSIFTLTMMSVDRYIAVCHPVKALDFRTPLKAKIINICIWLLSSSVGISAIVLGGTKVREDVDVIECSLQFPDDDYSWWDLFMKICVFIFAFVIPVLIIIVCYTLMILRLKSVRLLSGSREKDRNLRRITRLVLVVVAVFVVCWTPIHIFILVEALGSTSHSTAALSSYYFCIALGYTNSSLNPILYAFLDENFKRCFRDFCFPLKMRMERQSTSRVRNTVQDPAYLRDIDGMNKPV", "assay": "GTPγ[35S] binding assay, antagonism of dynorphin-A", "type": "biochemical", "outline": "as §1"}, "opioid receptor mu": {"target": "T3, opioid receptor mu (Homo sapiens, UniProt P35372)", "T3 construct": "expressed in transfected cells", "T3 sequence (P35372 whole entry)": "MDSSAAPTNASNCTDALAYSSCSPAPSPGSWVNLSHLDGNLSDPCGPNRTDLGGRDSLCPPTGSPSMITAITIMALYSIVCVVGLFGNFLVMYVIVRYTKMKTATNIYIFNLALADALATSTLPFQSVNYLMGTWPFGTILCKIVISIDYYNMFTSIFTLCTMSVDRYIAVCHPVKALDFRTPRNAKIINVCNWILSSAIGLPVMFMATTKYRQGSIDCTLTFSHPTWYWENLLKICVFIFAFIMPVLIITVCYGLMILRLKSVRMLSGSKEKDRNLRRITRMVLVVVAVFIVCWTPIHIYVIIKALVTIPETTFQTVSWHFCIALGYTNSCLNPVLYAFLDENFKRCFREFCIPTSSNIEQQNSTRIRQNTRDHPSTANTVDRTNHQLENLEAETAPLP", "assay": "GTPγ[35S] binding assay, antagonism of endorphin", "type": "biochemical", "outline": "as §1"}, "[1]": {"assay": "Spontaneous food intake model", "type": "in vivo, Sprague-Dawley rats", "details": "rats dosed before onset of dark cycle, compared with vehicle", "description": "Male Sprague-Dawley rats may be obtained from Charles River Laboratories, Inc. (Wilmington, Mass.). The rats were individually housed and fed powdered chow. They were maintained on a 12 hour light/dark cycle and received food and water ad libitum. The animals were acclimated to the vivarium for a period of one week before testing is conducted. Rats were transferred to individual test cages 30 hours before the study. The rats were administered test compound or vehicle alone (no compound) 15-30 minutes prior to the onset of the dark cycle. The test compounds were dosed at ranges between 0.1 and 100 mg/kg depending upon the compound. The standard vehicle was 0.5% (w/v) methylcellulose or 30% β-cyclodextrin in water and the standard route of administration was oral. However, different vehicles and routes of administration are used to accommodate various compounds when required. Food intake was monitored using an automated Columbus Instruments system (Columbus, Ohio). Individual rat food intake was recorded continuously at 10-minute intervals, starting at the time of dosing, for a period of at least 12 hours. Compound efficacy was determined by comparing the food intake pattern of compound-treated rats to vehicle."}, "[2]": {"assay": "Fasted induced refeeding model", "type": "in vivo, Sprague-Dawley rats", "details": "rats after overnight fast, compared with vehicle", "description": "The following screen is used to evaluate the efficacy of test compounds for inhibiting food intake in Sprague-Dawley rats after an overnight fast.\nMale Sprague-Dawley rats were obtained from Charles River Laboratories, Inc. (Wilmington, Mass.). The rats are individually housed and fed powdered chow. They are maintained on a 12 hour light/dark cycle and received food and water ad libitum. The animals are acclimated to the vivarium for a period of one week before testing is conducted. Testing is completed during the light portion of the cycle.\nTo conduct the food intake efficacy screen, rats are transferred to individual test cages without food the afternoon prior to testing, and the rats are fasted overnight. After the overnight fast, rats are dosed the following morning with vehicle or test compounds. A known antagonist is dosed (3 mg/kg) as a positive control, and a control group receives vehicle alone (no compound). […] Individual rat food intake is recorded continuously at 10-minute intervals for a period of two hours. When required, food intake is recorded manually using an electronic scale; food is weighed every 30 minutes after food is provided up to four hours after food is provided. Compound efficacy is determined by comparing the food intake pattern of compound-treated rats to vehicle and the standard positive control."}, "[3]": {"details": "rat, in vivo; cited from earlier work"}, "delta opioid receptor": {"target": "delta opioid receptor (Homo sapiens, UniProt P41143)", "sequence (P41143 whole entry)": "as the sequence (P41143 whole entry) above", "details": "cited from earlier work"}, "kappa opioid receptor": {"target": "kappa opioid receptor (Homo sapiens, UniProt P41145)", "sequence (P41145 whole entry)": "as the sequence (P41145 whole entry) above", "details": "kappa opioid receptor subtype; cited from earlier work"}, "mu opioid receptor": {"target": "mu opioid receptor (Homo sapiens, UniProt P35372)", "sequence (P35372 whole entry)": "as the sequence (P35372 whole entry) above", "details": "mu opioid receptor subtype; cited from earlier work"}, "[4]": {"details": "cited from earlier work"}, "[5]": {"details": "humans; cited from earlier work"}, "[6]": {"details": "rodents; cited from earlier work"}, "TNF-α production": {"system": "TNF-α production", "details": "rats; cited from earlier work"}, "[7]": {"details": "bile duct ligated rats; cited from earlier work"}, "[8]": {"details": "average Ki, antagonism of BW-373U86 (1 nM) stimulated GTPγ[35S] binding, delta opioid receptor membranes, read-out: Delta functional (GTPγ[35S] binding Ki)"}, "[9]": {"details": "average Ki, antagonism of dynorphin-A (10 nM) stimulated GTPγ[35S] binding, kappa opioid receptor membranes, read-out: Kappa functional (GTPγ[35S] binding Ki)"}, "[10]": {"details": "average Ki, antagonism of endorphin (1 μM) stimulated GTPγ[35S] binding, mu opioid receptor membranes, read-out: Mu functional (GTPγ[35S] binding Ki)"}, "[11]": {"details": "read-out: Delta functional (GTPγ[35S] binding Ki)"}, "[12]": {"details": "read-out: Kappa functional (GTPγ[35S] binding Ki)"}, "[13]": {"details": "read-out: Mu functional (GTPγ[35S] binding Ki)"}}, "note": "Structures can show the parent of a compound that is named as a salt. Where two headings read alike, the source gives them in different places."}
{"smiles": "Cc1cc(C(N)=O)c(F)cc1-c1ccc(CNCCC(C)C)c(F)c1.Cl.O", "note": "(hydrate or solvate)", "values": [{"measurement": "melting point", "value": 229, "unit": "°C"}]}
{"smiles": "CC(C)CCNCc1ccc(-c2cc(C(N)=O)ccc2F)c(F)c1.Cl", "note": "[1A-07]", "values": [{"measurement": "Ki", "setting": "opioid receptor delta; [8]", "value": 9.49, "unit": "nM"}, {"measurement": "Ki", "setting": "opioid receptor kappa; [9]", "value": 14.3, "unit": "nM"}, {"measurement": "Ki", "setting": "opioid receptor mu; [10]", "value": 14.5, "unit": "nM"}, {"measurement": "food intake", "setting": "[1]", "value": "significant reduction in food intake"}]}
{"smiles": "Cc1cc(C(N)=O)ccc1-c1ccc(CNCCC(C)C)cc1F.Cl", "note": "[1B-03]", "values": [{"measurement": "Ki", "setting": "opioid receptor delta; [8]", "value": 5.09, "unit": "nM"}, {"measurement": "Ki", "setting": "opioid receptor kappa; [9]", "value": 3.32, "unit": "nM"}, {"measurement": "Ki", "setting": "opioid receptor mu; [10]", "value": 8.96, "unit": "nM"}, {"measurement": "food intake", "setting": "[1]", "value": "significant reduction in food intake"}]}
{"smiles": "Cc1cc(C(N)=O)ccc1-c1ccc(CNC2Cc3ccccc3C2)cc1.Cl", "note": "[4B-04]", "values": [{"measurement": "Ki", "setting": "opioid receptor delta; [8]", "value": 0.185, "unit": "nM"}, {"measurement": "Ki", "setting": "opioid receptor kappa; [9]", "value": 0.406, "unit": "nM"}, {"measurement": "Ki", "setting": "opioid receptor mu; [10]", "value": 0.0925, "unit": "nM"}, {"measurement": "food intake", "setting": "[1]", "value": "significant reduction in food intake"}]}
{"smiles": "Cc1cc(C(N)=O)ccc1-c1ccc(CNCCCc2ccccc2)cc1.Cl", "note": "[4B-08]", "values": [{"measurement": "Ki", "setting": "opioid receptor delta; [8]", "value": 0.838, "unit": "nM"}, {"measurement": "Ki", "setting": "opioid receptor kappa; [9]", "value": 2.19, "unit": "nM"}, {"measurement": "Ki", "setting": "opioid receptor mu; [10]", "value": 2.84, "unit": "nM"}, {"measurement": "food intake", "setting": "[1]", "value": "significant reduction in food intake"}]}
{"smiles": "Cc1cc(C(N)=O)ccc1-c1cc(F)c(CNCCC(C)C)c(F)c1.Cl", "note": "[E1-01, 3′,5′Difluoro-2-methyl-4′-[(3-methyl-butylamino)-methyl]-biphenyl-4-carboxylic acid amide hydrochloride salt]", "values": [{"measurement": "Ki", "setting": "opioid receptor delta; [11]", "value": 1.7, "unit": "nM"}, {"measurement": "Ki", "setting": "opioid receptor kappa; [12]", "value": 2.64, "unit": "nM"}, {"measurement": "Ki", "setting": "opioid receptor mu; [13]", "value": 2.1, "unit": "nM"}, {"measurement": "food intake", "setting": "[1]", "value": "significant reduction in food intake"}]}
{"smiles": "Cc1cc(CNCCC(C)C)ccc1-c1ccc(C(N)=O)cc1C.Cl", "note": "[E2-01, 2,2′-Dimethyl-4′-[(3-methyl-butylamino)-methyl]-biphenyl-4-carboxylic acid amide hydrochloride salt]", "values": [{"measurement": "Ki", "setting": "opioid receptor delta; [11]", "value": 1.38, "unit": "nM"}, {"measurement": "Ki", "setting": "opioid receptor kappa; [12]", "value": 2.06, "unit": "nM"}, {"measurement": "Ki", "setting": "opioid receptor mu; [13]", "value": 0.886, "unit": "nM"}, {"measurement": "food intake", "setting": "[1]", "value": "significant reduction in food intake"}]}
{"smiles": "Cc1cc(C(N)=O)ccc1-c1ccc(CNCCC(C)C)c(Cl)c1", "note": "[E3-01, hydrochloride salt]", "values": [{"measurement": "Ki", "setting": "opioid receptor delta; [11]", "value": 1.53, "unit": "nM"}, {"measurement": "Ki", "setting": "opioid receptor kappa; [12]", "value": 1.73, "unit": "nM"}, {"measurement": "Ki", "setting": "opioid receptor mu; [13]", "value": 2.82, "unit": "nM"}, {"measurement": "food intake", "setting": "[1]", "value": "significant reduction in food intake"}]}
{"smiles": "Cc1cc(C(N)=O)ccc1-c1ccc(CNCCC(C)C)cc1", "note": "[E4-01, 2-Methyl-4′-[(3-methyl-butylamino)-methyl]-biphenyl-4-carboxylic acid amide]", "values": [{"measurement": "Ki", "setting": "opioid receptor delta; [8]", "value": 20, "unit": "nM"}, {"measurement": "Ki", "setting": "opioid receptor kappa; [9]", "value": 2.4, "unit": "nM"}, {"measurement": "Ki", "setting": "opioid receptor mu; [10]", "value": 6.5, "unit": "nM"}, {"measurement": "food intake", "setting": "[1]", "value": "significant reduction in food intake"}]}
{"smiles": "CC(C)CCNCc1ccc(-c2cccc(-c3nnc[nH]3)c2)c(F)c1.Cl", "note": "[E7-02, [2-Fluoro-3′-(4H-[1,2,4]-triazol-3-yl)-biphenyl-4-ylmethyl]-(3-methyl-butyl)-amine hydrochloride salt]", "values": [{"measurement": "Ki", "setting": "opioid receptor delta; read-out: Delta functional Ki (GTPγ[35S] binding)", "value": 1400, "unit": "nM"}, {"measurement": "Ki", "setting": "opioid receptor kappa; read-out: Kappa functional Ki (GTPγ[35S] binding)", "value": 5.9, "unit": "nM"}, {"measurement": "Ki", "setting": "opioid receptor mu; read-out: Mu functional Ki (GTPγ[35S] binding)", "value": 3.3, "unit": "nM"}, {"measurement": "food intake", "setting": "[1]", "value": "significant reduction in food intake"}, {"measurement": "food intake", "setting": "[2]", "value": "significant reduction in food intake"}]}
{"smiles": "C[C@H]1CN(CC[C@H](O)C2CCCCC2)CC[C@@]1(C)c1cccc(O)c1", "note": "[LY255582]", "values": [{"measurement": "anorectic effects", "setting": "[3]", "value": "robust anorectic effects"}]}
{"smiles": "C[C@H]1CN(CCC(O)C2CCCCC2)CC[C@@]1(C)c1cccc(O)c1", "note": "(stereo partly drawn) [LY515300, 1-(3-cyclohexyl-3-hydroxypropyl)-3(R),4(R)-dimethyl-4-(3-hydroxyphenyl)piperidine]", "values": [{"measurement": "binding affinity", "setting": "delta opioid receptor", "value": "lower affinity"}, {"measurement": "binding affinity", "setting": "kappa opioid receptor", "value": "subnanomolar"}, {"measurement": "binding affinity", "setting": "mu opioid receptor", "value": "subnanomolar"}]}
{"smiles": "O=C1CC[C@@]2(O)[C@H]3Cc4ccc(O)c5c4[C@@]2(CCN3CC2CC2)[C@H]1O5", "note": "[Naltrexone]", "values": [{"measurement": "insulin sensitivity", "setting": "[4]; Polycystic Ovarian Syndrome (PCOS) women with hyperinsulinemia", "value": "improve insulin sensitivity"}, {"measurement": "insulin sensitivity", "setting": "[4]; post-menopausal women with hyperinsulinemia", "value": "improve insulin sensitivity"}, {"measurement": "weight loss efficacy", "setting": "[5]", "value": "poor weight loss efficacy"}, {"measurement": "weight loss efficacy", "setting": "[6]", "value": "poor weight loss efficacy"}, {"measurement": "LPS-stimulated TNF-α production", "setting": "TNF-α production", "value": "inhibit LPS-stimulated TNF-α production"}, {"measurement": "liver fibrosis", "setting": "[7]", "value": "attenuate liver fibrosis"}]}
